Source: the NIST ThermoML archive (doi:10.1016/j.jct.2013.10.031)
Numbers after ± are expanded uncertainties.

Test: wn = mass fraction of the nth substance listed
Conditions: Gas, Burnett expansion method

FCC(F)(F)F [1,1,1,2-tetrafluoroethane] + CCC
Conditions	mass density [kg/m3]
291.04 K, 382.5 kPa, w2 = 0.6	9.6512 ± 0.55
291.04 K, 497.9 kPa, w2 = 0.6	12.8332 ± 0.57
291.04 K, 818.1 kPa, w2 = 0.6	22.6914 ± 0.67
291.06 K, 178.7 kPa, w2 = 0.65	4.1993 ± 0.49
291.06 K, 235.4 kPa, w2 = 0.65	5.5839 ± 0.5
291.06 K, 309.1 kPa, w2 = 0.65	7.425 ± 0.51
291.06 K, 404.2 kPa, w2 = 0.65	9.8733 ± 0.53
291.06 K, 525 kPa, w2 = 0.65	13.1287 ± 0.57
291.06 K, 642.6 kPa, w2 = 0.6	17.0639 ± 0.63
291.08 K, 675.9 kPa, w2 = 0.65	17.4564 ± 0.6
291.99 K, 927 kPa, w2 = 0.5	28.4165 ± 0.77
292 K, 732.8 kPa, w2 = 0.5	21.3324 ± 0.72
292.01 K, 193.1 kPa, w2 = 0.5	5.0866 ± 0.55
292.01 K, 254.3 kPa, w2 = 0.5	6.7756 ± 0.56
292.01 K, 334.3 kPa, w2 = 0.5	9.02529 ± 0.58
292.01 K, 437.9 kPa, w2 = 0.5	12.0223 ± 0.6
292.01 K, 569.6 kPa, w2 = 0.5	16.0141 ± 0.64
292.03 K, 202.8 kPa, w2 = 0.4	5.83306 ± 0.61
292.03 K, 587.9 kPa, w2 = 0.4	18.3639 ± 0.73
292.03 K, 753.1 kPa, w2 = 0.4	24.4617 ± 0.81
292.03 K, 950.3 kPa, w2 = 0.4	32.5844 ± 0.86
292.04 K, 266.5 kPa, w2 = 0.4	7.76977 ± 0.62
292.04 K, 348.8 kPa, w2 = 0.4	10.3497 ± 0.65
292.04 K, 454.4 kPa, w2 = 0.4	13.7862 ± 0.68
292.1 K, 669.6 kPa, w2 = 0.45	20.2125 ± 0.72
292.1 K, 852.9 kPa, w2 = 0.45	26.9241 ± 0.77
292.11 K, 399.4 kPa, w2 = 0.45	11.3911 ± 0.63
292.11 K, 519.4 kPa, w2 = 0.45	15.1737 ± 0.67
292.12 K, 176.3 kPa, w2 = 0.45	4.81956 ± 0.57
292.12 K, 232.3 kPa, w2 = 0.45	6.41979 ± 0.58
292.12 K, 305.2 kPa, w2 = 0.45	8.55159 ± 0.6
295.06 K, 496 kPa, w2 = 0.6	12.529 ± 0.56
295.06 K, 537 kPa, w2 = 0.55	14.2738 ± 0.6
295.06 K, 692.2 kPa, w2 = 0.55	18.98 ± 0.66
295.06 K, 881.4 kPa, w2 = 0.55	25.2378 ± 0.7
295.07 K, 315.8 kPa, w2 = 0.55	8.0723 ± 0.54
295.07 K, 641.4 kPa, w2 = 0.6	16.6596 ± 0.61
295.07 K, 820 kPa, w2 = 0.6	22.1527 ± 0.65
295.08 K, 167 kPa, w2 = 0.6	4.0072 ± 0.49
295.08 K, 220.6 kPa, w2 = 0.6	5.3286 ± 0.5
295.08 K, 240.3 kPa, w2 = 0.55	6.0706 ± 0.53
295.08 K, 380.5 kPa, w2 = 0.6	9.4217 ± 0.53
295.08 K, 413.2 kPa, w2 = 0.55	10.7336 ± 0.57
295.08 K, 929.7 kPa, w2 = 0.65	25.1362 ± 0.67
295.09 K, 290.3 kPa, w2 = 0.6	7.0853 ± 0.51
295.09 K, 571.2 kPa, w2 = 0.65	14.2158 ± 0.57
295.09 K, 733.9 kPa, w2 = 0.65	18.9032 ± 0.63
295.1 K, 440.4 kPa, w2 = 0.65	10.6904 ± 0.54
295.11 K, 337.1 kPa, w2 = 0.65	8.0394 ± 0.51
295.12 K, 195 kPa, w2 = 0.65	4.5466 ± 0.49
295.12 K, 256.9 kPa, w2 = 0.65	6.0457 ± 0.49
296.03 K, 914.3 kPa, w2 = 0.45	28.6491 ± 0.77
296.04 K, 429.5 kPa, w2 = 0.45	12.1212 ± 0.62
296.04 K, 558.2 kPa, w2 = 0.45	16.146 ± 0.66
296.04 K, 718.9 kPa, w2 = 0.45	21.5073 ± 0.73
296.05 K, 189.8 kPa, w2 = 0.45	5.12847 ± 0.56
296.05 K, 250.1 kPa, w2 = 0.45	6.83136 ± 0.58
296.05 K, 328.4 kPa, w2 = 0.45	9.09958 ± 0.59
296.06 K, 874.4 kPa, w2 = 0.5	25.9625 ± 0.72
296.07 K, 179.9 kPa, w2 = 0.5	4.64758 ± 0.54
296.07 K, 236.8 kPa, w2 = 0.5	6.1908 ± 0.55
296.07 K, 407 kPa, w2 = 0.5	10.9846 ± 0.58
296.07 K, 529.9 kPa, w2 = 0.5	14.6321 ± 0.62
296.07 K, 684.5 kPa, w2 = 0.5	19.4905 ± 0.68
296.15 K, 854.3 kPa, w2 = 0.4	27.6875 ± 0.83
296.15 K, 1071.2 kPa, w2 = 0.4	36.8808 ± 0.9
296.16 K, 518.5 kPa, w2 = 0.4	15.6041 ± 0.68
296.16 K, 669.4 kPa, w2 = 0.4	20.7854 ± 0.74
296.17 K, 231.5 kPa, w2 = 0.4	6.60203 ± 0.6
296.17 K, 304.4 kPa, w2 = 0.4	8.79413 ± 0.62
296.17 K, 398.4 kPa, w2 = 0.4	11.7141 ± 0.64
297.08 K, 311 kPa, w2 = 0.5	8.24631 ± 0.56
299.03 K, 1039.9 kPa, w2 = 0.55	30.269 ± 0.74
299.04 K, 190.4 kPa, w2 = 0.6	4.5212 ± 0.49
299.04 K, 220.4 kPa, w2 = 0.55	5.4755 ± 0.52
299.04 K, 251 kPa, w2 = 0.6	6.0118 ± 0.5
